Values after ≈ are worked out from the molar mass of the structure shown.
system: Plasmodium falciparum; assay: Antiplasmodial activity after 36 hrs against chloroquine-resistant Plasmodium falciparum W2 in human erythrocytes by [3H]hypoxanthine uptake; assay type: functional, organism-based

`C/C=C1/CN2CCc3c([nH]c4ccccc34)[C@@H]2C[C@@H]1Cc1nccc2c1[nH]c1ccc(O)cc12` and `C/C=C1\CN2CCc3c([nH]c4ccccc34)[C@@H]2C[C@@H]1Cc1nccc2c1[nH]c1ccc(O)cc12` are within 1.5-fold of each other in IC50: 0.122 µg/mL (≈ 0.272 µM) for the first, 0.16 µg/mL (≈ 0.357 µM) for the second.

For `C/C=C1/CN2CCc3c([nH]c4ccccc34)[C@@H]2C[C@@H]1Cc1nccc2c1[nH]c1ccccc12` [USAMBARENSINE], the IC50 was 0.265 µg/mL (≈ 0.613 µM).

system: Plasmodium falciparum; assay: Antiplasmodial activity after 36 hrs against chloroquine-sensitive Plasmodium falciparum FCA 20 in human erythrocytes by [3H]hypoxanthine uptake; assay type: functional, organism-based

Going from `C/C=C1/CN2CCc3c([nH]c4ccccc34)[C@@H]2C[C@@H]1Cc1nccc2c1[nH]c1ccc(O)cc12` to `C/C=C1\CN2CCc3c([nH]c4ccccc34)[C@@H]2C[C@@H]1Cc1nccc2c1[nH]c1ccc(O)cc12`, the IC50 rises from 0.113 µg/mL (≈ 0.252 µM) to 0.48 µg/mL (≈ 1.07 µM) (4.2-fold).

For `C/C=C1/CN2CCc3c([nH]c4ccccc34)[C@@H]2C[C@@H]1Cc1nccc2c1[nH]c1ccccc12` [USAMBARENSINE], the IC50 was 0.655 µg/mL (≈ 1.51 µM).

Reference: ChEMBL document CHEMBL1141829, “10'-Hydroxyusambarensine, a new antimalarial bisindole alkaloid from the roots of Strychnos usambarensis” (J Nat Prod, 1999)
